Reference: US11028361B2, “Compositions and methods for stabilizing susceptible compounds” (LIFE TECHNOLOGIES CORPORATION, priority 2011, dated 2021)

Tests used:
[1] = test system: DG44-EPO, a CHO cell line expressing recombinant erythropoietin; assay: Cell culture potency of ethanolamine derivatives (viable cell density); type: cell-based, Chinese hamster; details: for Multiple of the ethanolamine molar equivalent yielding similar growth potential to ethanolamine: FIGS. 1A and 1B, titered up to 64× of a molar equivalent, viable cell density followed for 8 days
Excerpt: We tested a range of ethanolamine derivatives for cell culture potency, including phosphorylethanolamine (PE), triethanolamine (TE), diethanolamine (DE), monomethylethanolamine (MME), dimethylethanolamine (DME), and N-acetylethanolaine (NAE). […] The cell line used was DG44-EPO, a CHO cell line expressing recombinant erythropoietin, that requires ethanolamine for good growth. Cells were inoculated at 3×10^5/ml and cultured bi-weekly for 3 subpassages in each condition prior to starting the assay. The assay was also inoculated at 3×10^5/ml but followed for 8 days for viable cell density from a ViCell cell counter.
Next we titered the compounds up to 64× of a molar equivalent. Both phoshorylethanolamine and NAE at about 16× the molar equivalent yielded similar growth potential to ethanolamine. In another set of experiments, NAE at about 16× the ethanolamine molar equivalent was again shown to be able to supplement an ethanolamine-sensitive line as well as ethanolamine. These latter experiments were performed in 24 well culture trays. Cells were inoculated at 1×10^5/ml and samples harvested at day 12. Because the nitrogen atom in NAE is contained within an amide structure, it is expected that NAE should be stable and can be used in place of ethanolamine in cell culture media.
The negative control is without ethanolamine. The line way above the rest should be disregarded—it is a CD CHO catalogue control, not relevant to this assay.

[2] = Microbeads protection studies during real-time ambient storage in AGT media (FIG. 8); type: physicochemical; details: FIG. 8, AGT media, ambient conditions
Excerpt: FIG. 8: Microbeads protection studies during real-time ambient storage.

HeLa cells = assay: HeLa cell growth with insulin-dendrimer-RGD conjugate, microencapsulated or not (FIG. 7B); type: cell-based; details: for Potency and growth characteristics of HeLa cells: FIG. 7B
Excerpt: FIG. 7B: Impact of microencapsulation of the insulin-dendrimer-RGD covalent conjugate on the growth of HeLa cell Growth.

[3] = Stability of insulin / insulin-dendrimer with and without alginate microencapsulation (FIG. 7A, FIG. 10); type: physicochemical
Description: Further examples for microencapsulating labile compounds other than ethanolamine are shown below. A sequestering agent like alginate was used to encapsulate or embed a dendrimer-insulin complex. The labile compound insulin was polymerized with PAMAM dendrimer, and further microencapsulated in alginate microbeads with or without PLL. Briefly, for dendrimer generation, PAMAM 2.5 (carboxylate surface groups) was used. Insulin was conjugated onto the dendrimer to which RGD sequences were also added to target the cell surface. The ratios of components in this complex was dendrimer:RGD:insulin=1:7:12.
Concentration of conjugate and alginate was adjusted as on attachment. Next conjugate was added to the alginate and mixed several minutes to distribute evenly. It was dripped through a 26 gauge needle using a 1 ml syringe into a calcium chloride bath (13.32 g/L). It was left to incubate for 30 minutes to solidify microcapsules. Then rinsed 1× in a solution also containing the dendrimer conjugate to prevent loss of component from the microcapsules. Then dried overnight in a vacuum over dessicant. The loaded microbeads were then added to AGT dry-format medium or used by adding directly into a liquid medium.
The insulin concentration of the dendrimer-insulin-RGD conjugate was estimated to be ˜2 mg/ml (pg 165/168). It needed to be diluted in half to get to ˜1 mg/ml (1000 μg/ml). […]

Compound: CC(=O)NCCO [NAE, N-acetylethanolamine]
- Higher concentration needed to perform in a cell growth assay comparable to ethanolamine ([1]; FIG. 2A (Example 2)): 8-12 fold
- Multiple of the ethanolamine molar equivalent able to supplement an ethanolamine-sensitive line comparable to ethanolamine ([1]; FIG. 2A cell growth titration assay (figure legend)): 16-20 ×
- Multiple of the ethanolamine molar equivalent yielding similar growth potential to ethanolamine [1]: about 16 ×
- Multiple of the ethanolamine molar equivalent able to supplement an ethanolamine-sensitive line as well as ethanolamine ([1]; another set of experiments, 24 well culture trays, harvested at day 12): about 16 ×

Compound: NCCO [Unencapsulated ethanolamine, ethanolamine]
- Ethanolamine potency (activity) during ambient storage [2]: drops quickly
- Ethanolamine potency (activity) during ambient storage ([2]; listed as unprotected ethanolamine): dropped quickly

Compound: NCCOP(=O)(O)O [phoshorylethanolamine, phosphorylethanolamine]
- Multiple of the ethanolamine molar equivalent yielding similar growth potential to ethanolamine [1]: about 16 ×

Compound: alginate
- Inhibition of / interference with viability or growth of HeLa cells (HeLa cells): did not interfere with viability or growth of Hela cells

Compound: insulin [insulin alone]
- Potency and growth characteristics of HeLa cells (HeLa cells): equivalent potency and growth characteristics of HeLa cells

Compound: unencapsulated dendrimer (with insulin): insulin conjugated onto PAMAM 2.5 dendrimer with RGD sequences, dendrimer:RGD:insulin=1:7:12, not encapsulated
- Potency and growth characteristics of HeLa cells (HeLa cells): equivalent potency and growth characteristics of HeLa cells
- Potency of insulin at 4° C. [3]: comparable to that of insulin alone
